Measured values from ChEMBL document CHEMBL5465560, “Selectivity Literature for EUbOPEN Chemogenomic Library” (2024).

How the values were obtained:
[1] = biological target: T1, Muscle, skeletal receptor tyrosine-protein kinase (Homo sapiens) (UniProt O15146); test: Selectivity interaction (KinomeScan (DiscoverX)) EUB0001079a MUSK; settings: at 1 µM
T1 sequence (whole entry): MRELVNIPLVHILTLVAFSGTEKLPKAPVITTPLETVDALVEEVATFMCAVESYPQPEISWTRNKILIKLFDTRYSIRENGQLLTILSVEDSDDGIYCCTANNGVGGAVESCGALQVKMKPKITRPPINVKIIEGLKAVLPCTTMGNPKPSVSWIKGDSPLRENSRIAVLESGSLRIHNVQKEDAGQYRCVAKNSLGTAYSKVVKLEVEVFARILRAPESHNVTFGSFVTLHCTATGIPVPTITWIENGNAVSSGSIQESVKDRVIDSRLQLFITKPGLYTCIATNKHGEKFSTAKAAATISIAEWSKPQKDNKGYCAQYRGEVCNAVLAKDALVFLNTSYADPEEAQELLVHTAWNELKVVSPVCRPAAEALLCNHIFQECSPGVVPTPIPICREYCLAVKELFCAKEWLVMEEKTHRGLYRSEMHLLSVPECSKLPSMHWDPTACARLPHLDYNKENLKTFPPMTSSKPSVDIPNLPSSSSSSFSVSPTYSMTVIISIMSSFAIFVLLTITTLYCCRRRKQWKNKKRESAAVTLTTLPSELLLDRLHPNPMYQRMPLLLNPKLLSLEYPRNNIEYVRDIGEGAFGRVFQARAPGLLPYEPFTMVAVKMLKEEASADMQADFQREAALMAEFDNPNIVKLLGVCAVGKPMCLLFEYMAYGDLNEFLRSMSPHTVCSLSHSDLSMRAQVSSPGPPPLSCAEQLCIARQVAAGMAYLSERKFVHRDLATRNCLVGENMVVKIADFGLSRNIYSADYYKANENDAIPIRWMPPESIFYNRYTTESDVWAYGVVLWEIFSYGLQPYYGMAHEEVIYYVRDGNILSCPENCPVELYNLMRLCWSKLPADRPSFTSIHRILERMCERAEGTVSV

[2] = biological target: Death-associated protein kinase 3 (Homo sapiens) (UniProt O43293); test: Selectivity interaction (SelectScreen profiling (Invitrogen)) EUB0000607a DAPK3; settings: at 2 µM
Chain of Death-associated protein kinase 3 (Homo sapiens) (O43293 whole entry, looked up): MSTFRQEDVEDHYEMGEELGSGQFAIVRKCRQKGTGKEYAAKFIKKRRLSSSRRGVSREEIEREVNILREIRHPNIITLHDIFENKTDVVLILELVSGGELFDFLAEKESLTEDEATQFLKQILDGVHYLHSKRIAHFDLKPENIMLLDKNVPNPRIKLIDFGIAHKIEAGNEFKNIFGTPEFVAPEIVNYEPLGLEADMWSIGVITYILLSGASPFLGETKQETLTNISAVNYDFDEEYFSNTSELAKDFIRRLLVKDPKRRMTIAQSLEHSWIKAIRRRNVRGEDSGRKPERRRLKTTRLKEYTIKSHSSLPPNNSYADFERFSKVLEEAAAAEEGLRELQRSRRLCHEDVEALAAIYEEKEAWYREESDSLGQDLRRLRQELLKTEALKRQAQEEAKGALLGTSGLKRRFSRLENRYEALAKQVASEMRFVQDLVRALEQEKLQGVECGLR

[3] = biological target: Inositol-tetrakisphosphate 1-kinase (Homo sapiens) (UniProt Q13572); test: Selectivity interaction (ActivX KiNativ screen (ex vivo kinase selectivity in human PBMCs)) EUB0001619a ITPK1; type: cell-based; settings: PBMC, at 1 µM
Chain of Inositol-tetrakisphosphate 1-kinase (Homo sapiens) (Q13572 whole entry): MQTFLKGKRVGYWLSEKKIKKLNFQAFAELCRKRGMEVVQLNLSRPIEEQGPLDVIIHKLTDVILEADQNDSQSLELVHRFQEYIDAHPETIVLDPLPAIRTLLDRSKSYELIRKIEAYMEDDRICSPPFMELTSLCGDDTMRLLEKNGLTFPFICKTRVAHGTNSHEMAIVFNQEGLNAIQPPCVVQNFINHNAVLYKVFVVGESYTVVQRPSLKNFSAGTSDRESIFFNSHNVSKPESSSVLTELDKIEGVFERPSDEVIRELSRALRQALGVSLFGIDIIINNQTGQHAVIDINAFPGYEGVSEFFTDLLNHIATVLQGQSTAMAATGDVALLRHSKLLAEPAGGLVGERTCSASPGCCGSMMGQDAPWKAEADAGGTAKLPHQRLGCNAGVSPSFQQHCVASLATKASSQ

[4] = biological target: Serine/threonine-protein kinase ATR (Homo sapiens) (UniProt Q13535); test: Selectivity interaction (ActivX KiNativ screen (ex vivo kinase selectivity in human PBMCs)) EUB0001619a ATR; type: cell-based; settings: PBMC, at 1 µM
Chain of Serine/threonine-protein kinase ATR (Homo sapiens) (Q13535 whole entry, looked up): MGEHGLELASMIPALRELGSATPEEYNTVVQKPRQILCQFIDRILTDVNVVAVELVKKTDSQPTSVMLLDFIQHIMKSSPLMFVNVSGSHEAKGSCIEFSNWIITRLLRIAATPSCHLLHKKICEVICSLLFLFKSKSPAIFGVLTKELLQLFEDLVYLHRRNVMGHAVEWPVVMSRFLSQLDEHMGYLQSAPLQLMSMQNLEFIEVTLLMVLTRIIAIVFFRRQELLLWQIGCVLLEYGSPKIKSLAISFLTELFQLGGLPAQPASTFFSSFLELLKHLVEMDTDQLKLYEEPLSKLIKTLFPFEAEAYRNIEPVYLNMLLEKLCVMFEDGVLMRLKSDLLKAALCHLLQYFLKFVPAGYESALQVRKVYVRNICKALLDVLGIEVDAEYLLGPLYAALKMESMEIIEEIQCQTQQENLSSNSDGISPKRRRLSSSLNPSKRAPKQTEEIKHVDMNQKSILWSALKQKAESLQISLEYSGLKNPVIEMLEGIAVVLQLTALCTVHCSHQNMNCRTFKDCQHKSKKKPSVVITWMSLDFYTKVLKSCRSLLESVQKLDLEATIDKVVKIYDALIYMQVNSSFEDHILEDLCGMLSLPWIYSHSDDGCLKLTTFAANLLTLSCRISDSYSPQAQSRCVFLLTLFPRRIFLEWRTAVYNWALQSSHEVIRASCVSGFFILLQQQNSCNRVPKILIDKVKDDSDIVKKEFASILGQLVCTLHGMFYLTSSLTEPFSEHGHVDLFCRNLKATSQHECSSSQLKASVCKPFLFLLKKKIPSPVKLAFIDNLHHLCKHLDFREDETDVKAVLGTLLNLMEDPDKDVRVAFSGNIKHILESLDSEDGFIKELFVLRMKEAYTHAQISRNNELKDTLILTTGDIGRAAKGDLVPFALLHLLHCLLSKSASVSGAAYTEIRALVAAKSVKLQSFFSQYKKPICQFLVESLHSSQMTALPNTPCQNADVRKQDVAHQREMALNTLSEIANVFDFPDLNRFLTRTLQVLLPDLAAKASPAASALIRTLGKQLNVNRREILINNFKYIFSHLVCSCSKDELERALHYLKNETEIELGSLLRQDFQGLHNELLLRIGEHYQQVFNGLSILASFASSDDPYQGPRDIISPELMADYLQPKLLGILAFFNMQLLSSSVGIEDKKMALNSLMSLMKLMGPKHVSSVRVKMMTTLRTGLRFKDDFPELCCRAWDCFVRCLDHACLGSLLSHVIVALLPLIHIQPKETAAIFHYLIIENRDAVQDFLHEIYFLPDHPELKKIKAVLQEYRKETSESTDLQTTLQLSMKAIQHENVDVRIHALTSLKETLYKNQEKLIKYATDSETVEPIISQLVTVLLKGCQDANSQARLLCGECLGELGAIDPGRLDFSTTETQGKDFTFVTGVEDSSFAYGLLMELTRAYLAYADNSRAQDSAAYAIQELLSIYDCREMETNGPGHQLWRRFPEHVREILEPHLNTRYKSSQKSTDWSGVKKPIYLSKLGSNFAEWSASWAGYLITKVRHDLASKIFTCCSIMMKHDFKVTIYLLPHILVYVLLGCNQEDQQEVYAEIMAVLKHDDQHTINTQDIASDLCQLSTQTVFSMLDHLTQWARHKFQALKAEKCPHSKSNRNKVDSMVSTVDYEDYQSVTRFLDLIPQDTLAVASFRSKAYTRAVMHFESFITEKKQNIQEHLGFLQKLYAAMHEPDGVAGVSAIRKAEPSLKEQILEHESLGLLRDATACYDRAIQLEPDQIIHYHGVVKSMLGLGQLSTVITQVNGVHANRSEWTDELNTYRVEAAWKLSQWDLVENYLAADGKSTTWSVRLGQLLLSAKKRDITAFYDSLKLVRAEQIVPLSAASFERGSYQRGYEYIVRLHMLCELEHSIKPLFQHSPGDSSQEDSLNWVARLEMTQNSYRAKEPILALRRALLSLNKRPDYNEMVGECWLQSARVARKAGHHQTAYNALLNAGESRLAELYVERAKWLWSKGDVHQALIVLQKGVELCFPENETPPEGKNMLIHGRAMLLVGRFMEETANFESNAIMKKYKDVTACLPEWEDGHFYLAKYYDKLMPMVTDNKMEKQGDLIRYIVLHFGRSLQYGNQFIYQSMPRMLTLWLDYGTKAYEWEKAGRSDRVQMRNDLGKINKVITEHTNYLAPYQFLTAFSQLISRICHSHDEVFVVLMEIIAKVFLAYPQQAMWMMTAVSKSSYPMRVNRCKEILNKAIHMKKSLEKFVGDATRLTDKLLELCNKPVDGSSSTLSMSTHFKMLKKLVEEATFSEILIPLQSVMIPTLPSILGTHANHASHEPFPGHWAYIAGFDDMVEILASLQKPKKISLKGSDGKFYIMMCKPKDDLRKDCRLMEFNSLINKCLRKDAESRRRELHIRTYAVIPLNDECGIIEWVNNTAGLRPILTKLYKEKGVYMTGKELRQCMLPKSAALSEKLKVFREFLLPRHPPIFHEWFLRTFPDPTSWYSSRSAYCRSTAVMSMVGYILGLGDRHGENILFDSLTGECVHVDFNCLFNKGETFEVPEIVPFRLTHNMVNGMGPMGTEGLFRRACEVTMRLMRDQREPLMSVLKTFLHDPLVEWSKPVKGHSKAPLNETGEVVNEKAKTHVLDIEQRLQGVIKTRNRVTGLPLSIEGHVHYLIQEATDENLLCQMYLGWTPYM

[5] = biological target: T2, Cyclin-dependent kinase 11A (Homo sapiens) (UniProt Q9UQ88); test: Selectivity interaction (KinomeScan (DiscoverX)) EUB0000045b CDK11A; settings: at 1 µM
T2 sequence (whole entry): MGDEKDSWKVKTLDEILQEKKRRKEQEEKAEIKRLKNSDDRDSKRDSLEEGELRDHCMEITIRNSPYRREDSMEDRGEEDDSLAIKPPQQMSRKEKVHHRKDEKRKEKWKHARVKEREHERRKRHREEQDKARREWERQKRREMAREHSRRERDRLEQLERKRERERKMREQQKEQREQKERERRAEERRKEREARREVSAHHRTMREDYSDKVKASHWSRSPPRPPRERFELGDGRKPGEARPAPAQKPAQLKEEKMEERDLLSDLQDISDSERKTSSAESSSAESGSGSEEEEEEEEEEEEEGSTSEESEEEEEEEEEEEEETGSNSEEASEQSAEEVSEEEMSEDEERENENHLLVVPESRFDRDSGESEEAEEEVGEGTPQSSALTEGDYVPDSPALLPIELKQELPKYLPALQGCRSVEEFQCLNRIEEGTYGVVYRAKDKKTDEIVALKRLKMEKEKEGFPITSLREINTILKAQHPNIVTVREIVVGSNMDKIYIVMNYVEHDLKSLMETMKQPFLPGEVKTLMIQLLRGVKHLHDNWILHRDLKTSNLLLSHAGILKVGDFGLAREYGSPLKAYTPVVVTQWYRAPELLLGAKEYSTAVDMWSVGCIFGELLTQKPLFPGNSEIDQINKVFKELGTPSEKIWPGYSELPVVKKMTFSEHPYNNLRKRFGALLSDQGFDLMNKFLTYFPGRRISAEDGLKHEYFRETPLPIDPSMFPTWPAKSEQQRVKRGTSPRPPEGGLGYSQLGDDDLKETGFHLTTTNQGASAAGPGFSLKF

[6] = biological target: Glycogen synthase kinase-3 alpha (Homo sapiens, UniProt P49840); test: Selectivity interaction (KinomeScan (DiscoverX)) EUB0000045b GSK3A
Chain of Glycogen synthase kinase-3 alpha (P49840 2-483 limits assumed): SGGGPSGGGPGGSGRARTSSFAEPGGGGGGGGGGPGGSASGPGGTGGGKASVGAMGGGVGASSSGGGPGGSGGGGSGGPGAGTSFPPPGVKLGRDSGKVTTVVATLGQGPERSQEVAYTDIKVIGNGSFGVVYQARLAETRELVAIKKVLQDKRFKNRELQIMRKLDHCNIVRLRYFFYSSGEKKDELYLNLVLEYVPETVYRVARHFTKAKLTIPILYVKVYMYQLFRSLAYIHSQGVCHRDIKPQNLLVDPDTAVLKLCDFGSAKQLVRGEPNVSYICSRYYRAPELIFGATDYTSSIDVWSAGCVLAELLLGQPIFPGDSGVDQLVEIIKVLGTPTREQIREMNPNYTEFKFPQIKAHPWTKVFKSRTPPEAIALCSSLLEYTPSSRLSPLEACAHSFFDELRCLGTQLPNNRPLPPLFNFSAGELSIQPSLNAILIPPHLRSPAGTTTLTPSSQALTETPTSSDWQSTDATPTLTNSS

[7] = biological target: T3, Serine/threonine-protein kinase Nek5 (Homo sapiens) (UniProt Q6P3R8); test: Selectivity interaction (KinomeScan (DiscoverX)) EUB0000045b NEK5
T3 sequence (whole entry): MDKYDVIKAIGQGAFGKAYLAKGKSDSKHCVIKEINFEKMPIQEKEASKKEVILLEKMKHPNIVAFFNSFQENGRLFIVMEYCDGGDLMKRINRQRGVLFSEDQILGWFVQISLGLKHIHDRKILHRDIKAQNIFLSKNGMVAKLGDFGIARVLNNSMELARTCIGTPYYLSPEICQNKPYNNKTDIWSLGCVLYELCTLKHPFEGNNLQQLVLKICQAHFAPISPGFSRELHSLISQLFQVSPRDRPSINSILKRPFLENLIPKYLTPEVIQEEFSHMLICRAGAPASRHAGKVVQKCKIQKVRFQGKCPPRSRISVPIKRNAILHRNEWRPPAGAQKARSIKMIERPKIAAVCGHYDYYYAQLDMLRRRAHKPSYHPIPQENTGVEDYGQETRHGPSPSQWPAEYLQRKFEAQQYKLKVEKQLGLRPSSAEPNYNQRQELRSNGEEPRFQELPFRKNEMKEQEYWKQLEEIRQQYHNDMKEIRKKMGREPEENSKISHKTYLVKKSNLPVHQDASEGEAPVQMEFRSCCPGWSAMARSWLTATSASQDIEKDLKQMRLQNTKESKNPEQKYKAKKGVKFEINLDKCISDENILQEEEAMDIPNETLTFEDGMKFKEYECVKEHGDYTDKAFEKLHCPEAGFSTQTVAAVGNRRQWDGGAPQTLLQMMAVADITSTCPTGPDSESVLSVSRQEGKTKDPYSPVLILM

[8] = biological target: Tyrosine-protein kinase Yes (Homo sapiens) (UniProt P07947); test: Selectivity interaction (KinomeScan (DiscoverX)) EUB0000695a YES1; settings: at 100 nM
Chain of Tyrosine-protein kinase Yes (Homo sapiens) (P07947 2-543 limits assumed): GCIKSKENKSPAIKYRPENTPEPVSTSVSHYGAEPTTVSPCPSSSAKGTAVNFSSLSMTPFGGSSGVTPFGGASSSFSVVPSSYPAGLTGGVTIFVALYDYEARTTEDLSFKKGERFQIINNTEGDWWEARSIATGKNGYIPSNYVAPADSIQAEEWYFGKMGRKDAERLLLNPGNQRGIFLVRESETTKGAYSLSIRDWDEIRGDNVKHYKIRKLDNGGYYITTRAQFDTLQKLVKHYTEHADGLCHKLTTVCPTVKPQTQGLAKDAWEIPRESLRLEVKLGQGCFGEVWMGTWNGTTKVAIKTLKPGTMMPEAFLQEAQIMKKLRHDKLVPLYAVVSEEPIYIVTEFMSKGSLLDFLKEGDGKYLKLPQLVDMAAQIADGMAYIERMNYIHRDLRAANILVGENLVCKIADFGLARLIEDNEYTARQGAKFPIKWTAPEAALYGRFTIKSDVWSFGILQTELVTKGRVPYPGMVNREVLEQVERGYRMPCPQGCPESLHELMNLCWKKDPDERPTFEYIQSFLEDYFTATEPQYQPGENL

## Nc1cnc(N2CCc3cc(S(=O)(=O)Nc4c(F)cc(Cl)cc4F)cc(N4CCCC4=O)c32)nc1 [TP-020n]
[1]
  % of control: 100%

## CNC(=O)Nc1ccc(-c2nc(N3CC4CCC(C3)O4)c3cnn(C4CCC5(CC4)OCCO5)c3n2)cc1
[2]
  % of inhibition: 2%

## N#Cc1cccc(-c2c[nH]c3ncnc(N4CCOCC4)c23)c1
[3]
  % of inhibition: -28%
[4]
  % of inhibition: 25%

## C=CC(=O)Nc1cc(-n2c(=O)ccc3cnc4ccc(-c5ccc(NS(C)(=O)=O)cc5)cc4c32)ccc1C
[5]
  % of control: 100%
[6]; at 1 µM
  % of control: 100%
[6]; at 10 µM
  % of control: 100%
[7]; at 1 µM
  % of control: 100%
[7]; at 10 µM
  % of control: 84%

## Cc1cc(F)c(C(=O)Nc2cccc(-c3nncn3C(C)C)n2)cc1-n1cnc(C2CC2)c1
[8]
  % of control: 73%
